Target: T1, USP28 (His-tagged USP28-FL-mammalian) (Homo sapiens, UniProt Q96RU2)
T1 construct: Expression of USP28 (1-1077)-TEV-6*His (pTT5 vector); made in house; host or cells: Expi293f cells (pTT5 vector)
T1 sequence (Q96RU2 1-1077): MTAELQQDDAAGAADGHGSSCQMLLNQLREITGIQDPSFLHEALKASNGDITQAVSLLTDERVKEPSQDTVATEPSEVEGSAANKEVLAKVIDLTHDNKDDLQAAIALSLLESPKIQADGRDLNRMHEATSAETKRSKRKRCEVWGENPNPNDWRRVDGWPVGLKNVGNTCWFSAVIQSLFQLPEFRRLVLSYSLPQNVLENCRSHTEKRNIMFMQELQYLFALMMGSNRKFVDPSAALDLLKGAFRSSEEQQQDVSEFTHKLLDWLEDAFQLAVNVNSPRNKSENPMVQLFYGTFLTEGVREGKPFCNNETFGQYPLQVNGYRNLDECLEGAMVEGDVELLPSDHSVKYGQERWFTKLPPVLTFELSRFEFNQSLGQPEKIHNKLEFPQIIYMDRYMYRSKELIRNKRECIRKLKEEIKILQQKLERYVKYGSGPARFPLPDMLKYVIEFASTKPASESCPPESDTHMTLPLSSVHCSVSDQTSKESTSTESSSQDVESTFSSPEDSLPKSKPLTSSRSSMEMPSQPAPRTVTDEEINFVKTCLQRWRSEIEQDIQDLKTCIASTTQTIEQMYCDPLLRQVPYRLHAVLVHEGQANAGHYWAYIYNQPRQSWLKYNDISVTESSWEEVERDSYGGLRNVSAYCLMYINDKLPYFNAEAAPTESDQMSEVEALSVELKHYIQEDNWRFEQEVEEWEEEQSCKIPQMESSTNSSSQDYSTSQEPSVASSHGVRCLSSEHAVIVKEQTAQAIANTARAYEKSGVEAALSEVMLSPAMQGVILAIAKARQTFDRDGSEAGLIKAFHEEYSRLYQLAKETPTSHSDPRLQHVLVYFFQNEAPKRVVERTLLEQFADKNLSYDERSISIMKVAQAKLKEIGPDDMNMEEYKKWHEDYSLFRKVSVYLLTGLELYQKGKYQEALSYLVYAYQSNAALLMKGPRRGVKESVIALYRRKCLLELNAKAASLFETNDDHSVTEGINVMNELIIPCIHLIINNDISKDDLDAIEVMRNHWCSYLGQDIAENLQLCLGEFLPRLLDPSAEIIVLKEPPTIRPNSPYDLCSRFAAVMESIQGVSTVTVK
Assay: Ubiquitin-Rhodamine 110 Assay for USP28 Activity, Example A-1(a)
Format: biochemical
Details: Ubiquitin-Rhodamine 110 assay, Example A-1(a); read-out: USP28 A-1(a) IC50 range
Outline: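 Full-length His-tagged USP28 (1-1077, Expi293F-expressed; […]) was preincubated 30 min with compound (25 μM–1.3 nM, 10-point 3-fold) in 20 mM Tris-HCl pH 8.0, 3 mM BME, 0.03% BGG, 0.01% Triton X-100. Ub-Rh110 (25 nM) was then added for 45 min at room temperature, stopped with citric acid, and read by fluorescence (485/535 nm).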

CO[C@H]1CN(c2cc3c(cc2F)C[C@@H](NC(=O)c2sc4nc(C)ccc4c2N)CO3)C[C@@H]1N [Example 94, 3-amino-N-[(3R)-7-[(3S,4S)-3-amino-4-methoxypyrrolidin-1-yl]-6-fluoro-3,4-dihydro-2H-1-benzopyran-3-yl]-6-methylthieno[2,3-b]pyridine-2-carboxamide] and Cc1ccc2c(N)c(C(=O)N[C@H]3COc4cc(N5CC6CCC(C5)N6)c(F)cc4C3)sc2n1 [Example 104, 3-amino-N-[(3R)-7-{3,8-diazabicyclo[3.2.1]octan-3-yl]-6-fluoro-3,4-dihydro-2H-1-benzopyran-3-yl]-6-methylthieno[2,3-b]pyridine-2-carboxamide] fall in the same range of IC50: 1 to 50 nM for the first, 1 to 50 nM for the second.

Cc1ccc2c(N)c(C(=O)N[C@H]3COc4c(C#N)c(N5CC6CCC(C5)N6)cc(F)c4C3)sc2n1 [Example 95, 3-amino-N-[(3R)-8-cyano-7-{3,8-diazabicyclo[3.2.1]octan-3-yl}-5-fluoro-3,4-dihydro-2H-1-benzopyran-3-yl]-6-methylthieno[2,3-b]pyridine-2-carboxamide] and Cc1ccc2c(N)c(C(=O)N[C@H]3COc4c(C#N)c(N5CC6CNCC(C5)O6)cc(F)c4C3)sc2n1 [Example 96, 3-amino-N-[(3R)-8-cyano-5-fluoro-7-{9-oxa-3,7-diazabicyclo[3.3.1]nonan-3-yl}-3,4-dihydro-2H-1-benzopyran-3-yl]-6-methylthieno[2,3-b]pyridine-2-carboxamide] fall in the same range of IC50: 1 to 50 nM for the first, 1 to 50 nM for the second.

Cc1cnc2c(N)c(C(=O)N[C@H]3COc4cc(N5CC6CCC(C5)N6)c(F)c(F)c4C3)sc2n1 [Example 97, 7-amino-N-[(3R)-7-{3,8-diazabicyclo[3.2.1]octan-3-yl]-5,6-difluoro-3,4-dihydro-2H-1-benzopyran-3-yl]-3-methylthieno[2,3-b]pyrazine-6-carboxamide] and Cc1cnc2c(N)c(C(=O)N[C@H]3COc4c(F)c(N5CC6CCC(C5)N6)cc(F)c4C3)sc2n1 [Example 107, 7-amino-N-[(3R)-7-{3,8-diazabicyclo[3.2.1]octan-3-yl}-5,8-difluoro-3,4-dihydro-2H-1-benzopyran-3-yl]-3-methylthieno[2,3-b]pyrazine-6-carboxamide] fall in the same range of IC50: 1 to 50 nM for the first, 1 to 50 nM for the second.

Cc1nc2sc(C(=O)N[C@H]3COc4c(F)c(N5CC6CCC(C5)N6)cc(F)c4C3)c(N)c2s1 [Example 98, 6-amino-N-[(3R)-7-{3,8-diazabicyclo[3.2.1]octan-3-yl}-5,8-difluoro-3,4-dihydro-2H-1-benzopyran-3-yl]-2-methylthieno[2,3-d][1, 3]thiazole-5-carboxamide] and Cc1nc2sc(C(=O)N[C@H]3COc4cc(N5CC6CCC(C5)N6)c(F)c(F)c4C3)c(N)c2s1 [Example 108, 6-amino-N-[(3R)-7-{3,8-diazabicyclo[3.2.1]octan-3-yl}-5,6-difluoro-3,4-dihydro-2H-1-benzopyran-3-yl]-2-methylthieno[2,3-d][1,3]thiazole-5-carboxamide] fall in the same range of IC50: 1 to 50 nM for the first, 1 to 50 nM for the second.

First: Cc1ccc2c(N)c(C(=O)N[C@H]3CCc4c(ccc(N5CC6CNCC(C5)O6)c4F)C3)sc2n1 [Example 99, 3-amino-N-[(2S)-5-fluoro-6-{9-oxa-3,7-diazabicyclo[3.3.1]nonan-3-yl}-1,2,3,4-tetrahydronaphthalen-2-yl]-6-methylthieno[2,3-b]pyridine-2-carboxamide]
Second: Cc1ccc2c(N)c(C(=O)N[C@@H]3CCc4c(ccc(N5CC6CNCC(C5)O6)c4F)C3)sc2n1 [Example 100, 3-amino-N-[(2R)-5-fluoro-6-{9-oxa-3,7-diazabicyclo[3.3.1]nonan-3-yl}-1,2,3,4-tetrahydronaphthalen-2-yl]-6-methylthieno[2,3-b]pyridine-2-carboxamide]
The IC50 of the first is lower: 1 to 50 nM for the first, 50 to 200 nM for the second. The first is the more potent here.

Cc1ccc2c(N)c(C(=O)N[C@H]3CCc4cc(N5CC6CNCC(C5)O6)c(F)cc4C3)sc2n1 [Example 101, 3-amino-N-[(2S)-7-fluoro-6-{9-oxa-3,7-diazabicyclo[3.3.1]nonan-3-yl}-1,2,3,4-tetrahydronaphthalen-2-yl]-6-methylthieno[2,3-b]pyridine-2-carboxamide] and Cc1ccc2c(N)c(C(=O)N[C@H]3CCc4cc(N5CC6CNCC(C5)O6)c(C#N)cc4C3)sc2n1 [Example 109, 3-amino-N-[(2S)-7-cyano-6-{9-oxa-3,7-diazabicyclo[3.3.1]nonan-3-yl}-1,2,3,4-tetrahydronaphthalen-2-yl]-6-methylthieno[2,3-b]pyridine-2-carboxamide] fall in the same range of IC50: 1 to 50 nM for the first, 1 to 50 nM for the second.

Cc1ccc2c(N)c(C(=O)N[C@H]3CCc4c(ccc(N5CC6CNCC(C5)O6)c4C#N)C3)sc2n1 [Example 102, 3-amino-N-[(2S)-5-cyano-6-{9-oxa-3,7-diazabicyclo[3.3.1]nonan-3-yl}-1,2,3,4-tetrahydronaphthalen-2-yl]-6-methylthieno[2,3-b]pyridine-2-carboxamide] and Cc1ccc2c(N)c(C(=O)N[C@H]3COc4c(ccc(N5CC6CNCC(C5)O6)c4F)C3)sc2n1 [Example 105, 3-amino-N-[(3R)-8-fluoro-7-{9-oxa-3,7-diazabicyclo[3.3.1]nonan-3-yl}-3,4-dihydro-2H-1-benzopyran-3-yl]-6-methylthieno[2,3-b]pyridine-2-carboxamide] fall in the same range of IC50: 1 to 50 nM for the first, 1 to 50 nM for the second.

Cc1ccc2c(N)c(C(=O)N[C@H]3COc4c(ccc(N5CC6CCC(C5)N6)c4F)C3)sc2n1 [Example 103, 3-amino-N-[(3R)-7-{3,8-diazabicyclo[3.2.1]octan-3-yl}-8-fluoro-3,4-dihydro-2H-1-benzopyran-3-yl]-6-methylthieno[2,3-b]pyridine-2-carboxamide] and Cc1ccc2c(N)c(C(=O)N[C@H]3COc4cc(N5CC6CNCC(C5)O6)c(F)cc4C3)sc2n1 [Example 106, 3-amino-N-[(3R)-6-fluoro-7-{9-oxa-3,7-diazabicyclo[3.3.1]nonan-3-yl}-3,4-dihydro-2H-1-benzopyran-3-yl]-6-methylthieno[2,3-b]pyridine-2-carboxamide] fall in the same range of IC50: 1 to 50 nM for the first, 1 to 50 nM for the second.

Cc1ccc2c(N)c(C(=O)N[C@H]3COc4c(F)c(N5C[C@@H]6C[C@H]5CN6)cc(F)c4C3)sc2n1 [Example 110, 3-amino-N-[(3R)-7-[(1S,4S)-2,5-diazabicyclo[2.2.1]heptan-2-yl]-5,8-difluoro-3,4-dihydro-2H-1-benzopyran-3-yl]-6-methylthieno[2,3-b]pyridine-2-carboxamide] and Cc1ccc2c(N)c(C(=O)N[C@H]3COc4c(F)c(N5C[C@H]6C[C@@H]5CN6)cc(F)c4C3)sc2n1 [Example 111, 3-amino-N-[(3R)-7-[(1R,4R)-2,5-diazabicyclo[2.2.1]heptan-2-yl]-5,8-difluoro-3,4-dihydro-2H-1-benzopyran-3-yl]-6-methylthieno[2,3-b]pyridine-2-carboxamide] fall in the same range of IC50: 1 to 50 nM for the first, 1 to 50 nM for the second.

Cc1ccc2c(N)c(C(=O)N[C@H]3COc4cc(N5C[C@@H]6C[C@H]5CN6)c(F)c(F)c4C3)sc2n1 [Example 112, 3-amino-N-[(3R)-7-[(1S,4S)-2,5-diazabicyclo[2.2.1]heptan-2-yl]-5,6-difluoro-3,4-dihydro-2H-1-benzopyran-3-yl]-6-methylthieno[2,3-b]pyridine-2-carboxamide] and CCO[C@H]1CN(c2ccc3c(c2)OC[C@H](NC(=O)c2sc4nc(C)ccc4c2N)C3)C[C@@H]1N [Example 115, 3-amino-N-[(3R)-7-[(3S,4S)-3-amino-4-ethoxypyrrolidin-1-yl]-3,4-dihydro-2H-1-benzopyran-3-yl]-6-methylthieno[2,3-b]pyridine-2-carboxamide] fall in the same range of IC50: 1 to 50 nM for the first, 1 to 50 nM for the second.

First: Cc1ccc2c(N)c(C(=O)N[C@H]3COc4nc(N5CC6CNCC(C5)C6(F)F)ccc4C3)sc2n1 [Example 113, 3-amino-N-[(3R)-7-{9 9-difluoro-3,7-diazabicyclo[3.3.1]nonan-3-yl}-2H b,3H,4H-pyrano[2,3-b]pyridin-3-yl]-6-methylthieno[2,3-b]pyridine-2-carboxamide]
Second: CO[C@H]1CN(c2ccc3c(c2)CC[C@H](NC(=O)c2sc4nc(C)ccc4c2N)C3)C[C@@H]1N [Example 116, 3-amino-N-[(2S)-6-[(3S,4S)-3-amino-4-methoxypyrrolidin-1-yl}-1,2,3,4-tetrahydronaphthalen-2-yl]-6-methylthieno[2,3-b]pyridine-2-carboxamide]
The IC50 of the first is lower: 1 to 50 nM for the first, 50 to 200 nM for the second. The first is the more potent here.
